In patent US20110105397A1, “METHOD FOR TREATING HEART FAILURE WITH STRESSCOPIN-LIKE PEPTIDES” (priority 2009, published 2011):
Where a SMILES comes first, the peptide text is derived from it. Where no end group is shown, it is not given here. The star is where a group is joined. Succinimide(1-Et,3-yl) = CCN1C(=O)CC(*)C1=O

Molecular target: T1, human CRHR2 (Homo sapiens, UniProt Q13324)
T1 construct: expressed in transfected cells
T1 sequence (Q13324 1-411): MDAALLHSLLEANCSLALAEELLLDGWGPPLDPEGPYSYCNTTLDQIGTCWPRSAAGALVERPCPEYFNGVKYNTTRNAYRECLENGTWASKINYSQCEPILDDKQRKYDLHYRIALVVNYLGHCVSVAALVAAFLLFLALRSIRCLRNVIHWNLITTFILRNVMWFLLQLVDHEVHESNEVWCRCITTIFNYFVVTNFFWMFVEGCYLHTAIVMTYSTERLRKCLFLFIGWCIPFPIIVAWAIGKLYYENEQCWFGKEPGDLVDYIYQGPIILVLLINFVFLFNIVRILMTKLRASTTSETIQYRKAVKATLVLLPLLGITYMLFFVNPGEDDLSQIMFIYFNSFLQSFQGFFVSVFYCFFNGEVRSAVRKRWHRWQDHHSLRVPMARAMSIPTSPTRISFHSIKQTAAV
Assay: cAMP assay, h-CRHR2 transfected SK-N-MC cells
Type: cell-based
Conditions: Table 13; for EC50: cysteine mutation, N-ethylmaleimide capping, pegylation, read-out: pA50 (converted); for Log DR [M]: h-SCP control pA50 minus test compound pA50 within the same assay batch
Summary of the method: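 SK-N-MC cells stably expressing human CRHR2 were treated with peptides (1 pM to 1 μM) for 60 min at 37 °C in IBMX-containing medium, with 10 μM forskolin as positive control. Cells were lysed with 0.5 M HCl and cAMP measured by [125I]-cAMP competition flash plate. A50 came from Hill-equation fits, normalised to h-SCP maximum.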

| EC50 [nM] | Log DR [M] | Compound |
| --- | --- | --- |
| 0.363 | 0.03 | CC[C@H](C)[C@H](NC(=O)[C@H](CCC(N)=O)NC(=O)[C@H](C)NC(=O)[C@H](CCSC)NC(=O)[C@H](CC(C)C)NC(=O)[C@H](Cc1c[nH]cn1)NC(=O)[C@H](C)NC(=O)[C@H](CC(N)=O)NC(=O)[C@H](C)NC(=O)[C@H](C)NC(=O)[C@H](C)NC(=O)[C@H](CCC(N)=O)NC(=O)[C@H](C)NC(=O)[C@H](CCCNC(=N)N)NC(=O)[C@H](CSC1CC(=O)N(CC)C1=O)NC(=O)[C@H](CC(N)=O)NC(=O)[C@H](CCCCN)NC(=O)[C@H](C)NC(=O)[C@H](CCCCN)NC(=O)[C@H](C)NC(=O)[C@@H](NC(=O)[C@H](CC(N)=O)NC(=O)[C@H](Cc1ccccc1)NC(=O)[C@H](CC(C)C)NC(=O)[C@H](CC(C)C)NC(=O)[C@H](CC(N)=O)NC(=O)[C@H](CCSC)NC(=O)[C@@H](NC(=O)[C@H](CC(N)=O)NC(=O)[C@@H](NC(=O)[C@@H]1CCCN1C(=O)[C@@H](NC(=O)[C@H](CC(=O)O)NC(=O)[C@H](CC(C)C)NC(=O)[C@H](CO)NC(=O)[C@H](CC(C)C)NC(=O)[C@@H](NC(=O)[C@H](Cc1ccccc1)NC(=O)[C@H](CCCCN)NC(=O)[C@@H](N)[C@@H](C)O)[C@@H](C)O)C(C)C)[C@@H](C)O)[C@@H](C)CC)[C@@H](C)CC)C(N)=O (some centres unmarked) [SEQ ID NO: 48, TKFTLSLDVPTNIMNLLFNIAKAKNC(-NES)RAQA AANAH LMAQI-NH2] (H-TKFTLSLDVPTNIMNLLFNIAKAKNC(Succinimide(1-Et,3-yl))RAQAAANAHLMAQI-NH2; N-terminus assumed) |
| 1 | 0.52 | TKFTLSLDVPTNIMNLLFCIAKAKNLRAQAAANAHLMAQI-NH2 [SEQ ID NO: 20, TKFTLSLDVPTNIMNLLFCIAKAKNLRAQAAANAHLMAQI-NH2] |
| ~17.8 | ~1.72 | CC[C@H](C)[C@H](NC(=O)[C@H](CC(N)=O)NC(=O)[C@H](Cc1ccccc1)NC(=O)[C@H](CC(C)C)NC(=O)[C@H](CC(C)C)NC(=O)[C@H](CC(N)=O)NC(=O)[C@H](CCSC)NC(=O)[C@@H](NC(=O)[C@H](CC(N)=O)NC(=O)[C@@H](NC(=O)[C@@H]1CCCN1C(=O)[C@@H](NC(=O)[C@H](CC(=O)O)NC(=O)[C@H](CC(C)C)NC(=O)[C@H](CO)NC(=O)[C@H](CC(C)C)NC(=O)[C@@H](NC(=O)[C@H](Cc1ccccc1)NC(=O)[C@H](CCCCN)NC(=O)[C@@H](N)[C@@H](C)O)[C@@H](C)O)C(C)C)[C@@H](C)O)[C@@H](C)CC)C(=O)N[C@@H](C)C(=O)N[C@@H](CCCCN)C(=O)N[C@@H](C)C(=O)N[C@@H](CCCCN)C(=O)N[C@@H](CC(N)=O)C(=O)N[C@@H](CC(C)C)C(=O)N[C@@H](CCCNC(=N)N)C(=O)N[C@@H](C)C(=O)N[C@@H](CCC(N)=O)C(=O)N[C@@H](C)C(=O)N[C@@H](C)C(=O)N[C@@H](C)C(=O)N[C@@H](CC(N)=O)C(=O)N[C@@H](C)C(=O)N[C@@H](Cc1c[nH]cn1)C(=O)N[C@@H](CC(C)C)C(=O)N[C@@H](CCSC)C(=O)N[C@@H](C)C(=O)N[C@@H](CCC(N)=O)C(=O)N[C@@H](CSC1CC(=O)N(CC)C1=O)C(N)=O (some centres unmarked) [SEQ ID NO: 42, TKFTLSLDVPTNIMNLLFNIAKAKNLRAQAAANAHLMAQC(-NES)-NH2] (H-TKFTLSLDVPTNIMNLLFNIAKAKNLRAQAAANAHLMAQC(Succinimide(1-Et,3-yl))-NH2; N-terminus assumed) |
| 0.316 | 0.02 | TKFTLSLDVPTNIMNCLFNIAKAKNLRAQAAANAHLMAQI-NH2 [SEQ ID NO: 17, TKFTLSLDVPTNIMNCLFNIAKAKNLRAQAAANAHLMAQI-NH2] |
| 2.24 | 1.03 | TKCTLSLDVPTNIMNLLFNIAKAKNLRAQAAANAHLMAQI-NH2 [SEQ ID NO: 4, TKCTLSLDVPTNIMNLLFNIAKAKNLRAQAAANAHLMAQI-NH2] |
| ~479 | >3.19 | TKFTLSLDVPTNIMNLLFNIAKAKNLRAQAAACAHLMAQI-NH2 [SEQ ID NO: 34, TKFTLSLDVPTNIMNLLFNIAKAKNLRAQAAACAHLMAQI-NH2] |
| 0.363 | 0.08 | TKFTLSLDVPTNIMNLLFNIAKAKCLRAQAAANAHLMAQI-NH2 [SEQ ID NO: 26, TKFTLSLDVPTNIMNLLFNIAKAKCLRAQAAANAHLMAQI-NH2] |
| 1.78 | 0.77 | TKFTLSLDVPTNIMNLLFNCAKAKNLRAQAAANAHLMAQI-NH2 [SEQ ID NO: 21, TKFTLSLDVPTNIMNLLFNCAKAKNLRAQAAANAHLMAQI-NH2] |
| ~151 | 2.86 | TKFTLSCDVPTNIMNLLFNIAKAKNLRAQAAANAHLMAQI-NH2 [SEQ ID NO: 8, TKFTLSCDVPTNIMNLLFNIAKAKNLRAQAAANAHLMAQI-NH2] |
| 0.257 | −0.01 | TKFTLSLDVPTCIMNLLFNIAKAKNLRAQAAANAHLMAQI-NH2 [SEQ ID NO: 13, TKFTLSLDVPTCIMNLLFNIAKAKNLRAQAAANAHLMAQI-NH2] |
| 0.617 | 0.41 | H-TKFTLSLDVPTNIMNLLFNIAKAKNLRAQAAANAHLMCQI-NH2 [SEQ ID NO: 39, TKFTLSLDVPTNIMNLLFNIAKAKNLRAQAAANAHLMCQI-NH2] |
| 0.437 | 0.11 | CC[C@H](C)[C@H](NC(=O)[C@H](CCC(N)=O)NC(=O)[C@H](C)NC(=O)[C@H](CCSC)NC(=O)[C@H](CC(C)C)NC(=O)[C@H](Cc1c[nH]cn1)NC(=O)[C@H](C)NC(=O)[C@H](CC(N)=O)NC(=O)[C@H](C)NC(=O)[C@H](C)NC(=O)[C@H](C)NC(=O)[C@H](CCC(N)=O)NC(=O)[C@H](C)NC(=O)[C@H](CCCNC(=N)N)NC(=O)[C@H](CC(C)C)NC(=O)[C@H](CSC1CC(=O)N(CC)C1=O)NC(=O)[C@H](CCCCN)NC(=O)[C@H](C)NC(=O)[C@H](CCCCN)NC(=O)[C@H](C)NC(=O)[C@@H](NC(=O)[C@H](CC(N)=O)NC(=O)[C@H](Cc1ccccc1)NC(=O)[C@H](CC(C)C)NC(=O)[C@H](CC(C)C)NC(=O)[C@H](CC(N)=O)NC(=O)[C@H](CCSC)NC(=O)[C@@H](NC(=O)[C@H](CC(N)=O)NC(=O)[C@@H](NC(=O)[C@@H]1CCCN1C(=O)[C@@H](NC(=O)[C@H](CC(=O)O)NC(=O)[C@H](CC(C)C)NC(=O)[C@H](CO)NC(=O)[C@H](CC(C)C)NC(=O)[C@@H](NC(=O)[C@H](Cc1ccccc1)NC(=O)[C@H](CCCCN)NC(=O)[C@@H](N)[C@@H](C)O)[C@@H](C)O)C(C)C)[C@@H](C)O)[C@@H](C)CC)[C@@H](C)CC)C(N)=O (some centres unmarked) [SEQ ID NO: 49, TKFTLSLDVPTNIMNLLFNIAKAKC(-NES) LRAQA AANAH LMAQI-NH2] (H-TKFTLSLDVPTNIMNLLFNIAKAKC(Succinimide(1-Et,3-yl))LRAQAAANAHLMAQI-NH2; N-terminus assumed) |
| ~214 | >2.95 | TKFTLSLDVPTNIMNLLFNIAKAKNLRAQAAANAHLCAQI-NH2 [SEQ ID NO: 38, TKFTLSLDVPTNIMNLLFNIAKAKNLRAQAAANAHLCAQI-NH2] |
| ~56.2 | ~2.22 | CC[C@H](C)[C@H](NC(=O)[C@H](CCC(N)=O)NC(=O)[C@H](C)NC(=O)[C@H](CCSC)NC(=O)[C@H](CC(C)C)NC(=O)[C@H](Cc1c[nH]cn1)NC(=O)[C@H](C)NC(=O)[C@H](CC(N)=O)NC(=O)[C@H](C)NC(=O)[C@H](C)NC(=O)[C@H](C)NC(=O)[C@H](CCC(N)=O)NC(=O)[C@H](C)NC(=O)[C@H](CCCNC(=N)N)NC(=O)[C@H](CC(C)C)NC(=O)[C@H](CC(N)=O)NC(=O)[C@H](CCCCN)NC(=O)[C@H](C)NC(=O)[C@H](CCCCN)NC(=O)[C@H](C)NC(=O)[C@@H](NC(=O)[C@H](CC(N)=O)NC(=O)[C@H](Cc1ccccc1)NC(=O)[C@H](CSC1CC(=O)N(CC)C1=O)NC(=O)[C@H](CC(C)C)NC(=O)[C@H](CC(N)=O)NC(=O)[C@H](CCSC)NC(=O)[C@@H](NC(=O)[C@H](CC(N)=O)NC(=O)[C@@H](NC(=O)[C@@H]1CCCN1C(=O)[C@@H](NC(=O)[C@H](CC(=O)O)NC(=O)[C@H](CC(C)C)NC(=O)[C@H](CO)NC(=O)[C@H](CC(C)C)NC(=O)[C@@H](NC(=O)[C@H](Cc1ccccc1)NC(=O)[C@H](CCCCN)NC(=O)[C@@H](N)[C@@H](C)O)[C@@H](C)O)C(C)C)[C@@H](C)O)[C@@H](C)CC)[C@@H](C)CC)C(N)=O (some centres unmarked) [SEQ ID NO: 53, TKFTL SLDVP TNIMN LC(-NES)FNI AKAKN LRAQA AANAH LMAQI-NH2] (H-TKFTLSLDVPTNIMNLC(Succinimide(1-Et,3-yl))FNIAKAKNLRAQAAANAHLMAQI-NH2) |
| 1.07 | 0.72 | CKFTLSLDVPTNIMNLLFNIAKAKNLRAQAAANAHLMAQI-NH2 [SEQ ID NO: 2, CKFTLSLDVPTNIMNLLFNIAKAKNLRAQAAANAHLMAQI-NH2] |
| 9.77 | 1.67 | H-TKFTLSLDVPTNIMNLLCNIAKAKNLRAQAAANAHLMAQI-NH2 [SEQ ID NO: 19, TKFTLSLDVPTNIMNLLCNIAKAKNLRAQAAANAHLMAQI-NH2] |
| 1.17 | 0.76 | H-TKFTLSLDVPTNIMCLLFNIAKAKNLRAQAAANAHLMAQI-NH2 [SEQ ID NO: 16, TKFTLSLDVPTNIMCLLFNIAKAKNLRAQAAANAHLMAQI-NH2] |
| 13.8 | 1.72 | TKFTLSLDVPCNIMNLLFNIAKAKNLRAQAAANAHLMAQI-NH2 [SEQ ID NO: 12, TKFTLSLDVPCNIMNLLFNIAKAKNLRAQAAANAHLMAQI-NH2] |
| 1.74 | 0.82 | TKFTLSLDVCTNIMNLLFNIAKAKNLRAQAAANAHLMAQI-NH2 [SEQ ID NO: 11, TKFTLSLDVCTNIMNLLFNIAKAKNLRAQAAANAHLMAQI-NH2] |
